How the values were obtained:
[1] = tested on: IL-6; assay: Phase IIa clinical trial in rheumatoid arthritis patients, IL-6 assessment (PK/PD population); format: in vivo, human; conditions: RA patients
Description: In a phase IIa clinical trial, a total of 225 patients diagnosed with active rheumatoid arthritis were randomized to receive one of the following treatments: • 6.25 mg of Rabeximod (daily) • 15 mg of Rabeximod (daily) • 37.5 mg of Rabeximod (daily) • Placebo
Study drug was provided in the form of a capsule comprising rabeximod in the form of a (micronized) powder. Over 200 patients completed the study.
The primary aim of the study was to evaluate the safety and efficacy of
Rabeximod treatment in RA patients. The study also involved Pharmacokinetic and Pharmacodynamic assessments in a subgroup (PK/PD Population) of 36 patients. This included assessment of changes in hsCRP, TNF-α, IL-6, COMP and anti-CCP.

[2] = tested on: human peripheral blood mononuclear cells (PBMC); assay: LPS-stimulated cytokine/chemokine release from human PBMC in vitro (multiplex, Luminex); format: cell-based; conditions: PBMC from 7 donors
Description: The effect of Rabeximod on the release of GM-CSF, IL-113, IL-6, IL-8, TNF-α, MCP-1, MIP-1a, MIP-1β and RANTES from human peripheral blood mononuclear cells (PBMC) in vitro was evaluated. Rabeximod was tested at two concentrations (1.25 μg/ml and 12.5 μg/ml) on PBMC's isolated from 7 donors. Human PBMCs were isolated from whole blood using a Ficoll gradient. Cells ([…]) were then plated in a volume of 0.5 ml (0.5 ml of vehicle control (1% methanol in RPMI 1640 media) or rabeximod resuspended in methanol and diluted to a concentration of […] media was added). After incubation (1 h 37° C.) with LPS (0.1 mg/ml), cells were further incubated for 18-20 h before supernatant was removed for analysis of cytokine production using cytokine multiplex assays (Biosource, Nivelles, Belgium), accord-ing to the manufacturer's instructions. Data were collected using a Luminex 100 (Luminex Corporation, Austin, Tex., USA). All samples were analyzed in duplicates and a mean value for each sample was calculated.

[3] = tested on: TLR2 stimulated macrophages; assay: TNF-α production by thioglycolate-recruited peritoneal macrophages after LPS or TLR2 stimuli (ELISA); format: cell-based, mouse; conditions: 12.5 ug/ml, added 0 h to +3 h after stimulus; stronger effect if administered early
Description: The aim was to investigate whether, after stimulation, Rabeximod has the ability to decrease production of pro-inflammatory cytokines by macrophages isolated from the peritoneal cavity after thioglycolate recruitment. B10.Q mice with/without expression of functional TLR4 matched according to sex and age were used as donors of peritoneal macrophages. Mice were injected on day −5 with sterilized 3% Thioglycolate intraperitoneally. On day 0 the peritoneal cavity was washed with ice cold PBS to collect recruited cells. The cells were counted and added to plates at a final concentration of 200 000 cells/well in medium. Rabeximod diluted in a minimal amount DMSO and then DMEM to final concentration (12.5 ug/ml) was added simultaneously (h 0) or at time points+0.5 h, +1 h or +3 hours after LPS or TLR2 stimuli (Lipomannan). Cells were incubated for 24 hours before the whole plate was frozen. TNF-α ELISA was performed after one week using antibodies from e-biosciences and detected by europium. Mice were injected on […] (1 ml) intraperitoneally. […] TNFα production was determined using a ready-SET-go! […]

[4] = tested on: mixed lymphocytes reaction (MLR) of human donors; assay: Mixed lymphocytes reaction (MLR) of human donors, 3[H]-thymidine incorporation; format: cell-based
Description: Peripheral blood mononuclear cells (PBMCs) were prepared and modified for use as stimulator cells through γ-irradiation, or for use as responder cells. Rabeximod was then added to a responder and […] cell mix at various concentrations (of 10^−5, 10^−6, 10^−7 and 10^−8 M) before the cells were incubated. In the test, responder cells should proliferate more in the presence than in the absence of stimulator cells.
Normal PBMCs were obtained from healthy volunteers at the blood bank (Shiba medical center, Tel-Hashomer). Blood donations tested negative to HBSAg, HIV, HCV, ALT, HTLV and TPHA. Twelve donors were obtained in 3 sessions following review by the Committee for Ethical Conduct in the Care and Use of Laboratory Animals of the Hebrew University, Jerusalem, the Institutional Animal Care and Use Committee (IACUC) responsible for approving Harlan Biotech (Israel) animal usage application in compliance with its respective registration under National Institues of Health (NIH) accreditation no. OPR-A01-5011. Peripheral blood mononuclear cells (PBMCs) were freshly separated from heparinized full blood by Ficoll-Hypaque (IsoPrep, Robbins Scientific) density gradient centrifugation. After two washes with PBS, cells were diluted in PBMCs medium and counted. Since MLR was conducted in two-ways format, each donor was utilized as stimulator and as responder.
In each session, 0.87*10^6/ml PBMCs cells from each donor were mixed and then γ-irradiated with 4000 rad (about 6.25 minutes). Cells were diluted in PBMCs medium to give the highest concentration). Further dilutions in ×2-fold were done in PBMCs medium. 50*10^6 were taken from each donor to obtain a mixture of stimulators in each experiment.
Cells were resuspended in PBMCs medium at approximately 2*10^6 cells/ml and incubated in flasks for 2 hours at 5% CO2, 37° C. Adherent cells were dis-carded while non-adherent cells in the supernatant were centrifuged at 700 g for 10 minutes. To enrich for T lymphocytes, cells were resuspended in 5% PBMCs medium and loaded on nylon wool columns (Uni-Sorb, Novamed) at 8*10^7 cells/ml, according to manufacturer instructions.
Cells were seeded in 96-well round-bottom plates at the varying ratios of stimulator vs. responder cells.
^3[H]-Thymidine was added to the cell culture at 18 hrs before the end of the cultivation period (6 days). Cells were harvested and transferred to filters (unifilters GF/C) using the Packard filtermate Cell harvester. Following addition of scintillation fluid (MicroScint20™) to the filters, they were counted in Packard microplate scintillation β-counter. Results are expressed as Counting Per Minutes (CPM).

[5] = tested on: wild type and TLR4 deficient mice; assay: Collagen antibody-induced arthritis (CAIA) boosted with TLR stimuli in mice, arthritis scoring; format: in vivo, mouse; conditions: for arthritis severity: 40 mg/kg subcutaneously every second day, day 5 to 15
Description: QB mice (10-20 weeks) were generated from a (BALB/cxB10.Q) F1 cross. C57BL/10ScNJ mice (Tlr4^lps-del), hereafter called Tlr4^del, were ordered from The Jackson Laboratory (The Jackson Laboratory, Bar Harbor, Me., USA). These mice have deletion of the Tlr4 gene that results in absence of mRNA and protein and is thus defective in response to LPS stimulation. These mice were crossed together with C57BL/10.Q mice from Medical Inflammation Research, Lund university, Lund, Sweden in order to generate mice expressing major histocompatibility complex (MHC) Aq. Mice were kept and bred in a climate-controlled environment with a 12 h light/dark cycle, fed standard rodent chow and water ad libitum in the animal facility of Medical Inflammation Research, Lund University, Lund, Sweden.
Litters were genotyped for MHC using microsatellite marker D17mit230. Genotyping of Tlr4 was performed according to an earlier described method. Briefly, DNA was prepared from biopsies and primers flanking the 70 kb deletion or amplifying the wild-type sequence absent in the TLR4 deleted mice were used.
The mice were matched according to age and sex, and littermates were used in all experiments. All experiments were approved according to Malmö/Lund ethical committee license M107-07.
Male mice, older than 8 weeks, were injected intravenously on day 0 with a cocktail of four monoclonal antibodies (4 mg in a total volume of 310 μl/mouse) containing M2139, CIIC1, CIIC2 and UL1 antibodies binding to J1, C1^I, D3 and U1 epitopes of CII in order to induce CAIA. Day 5 mice were injected with LPS from Escherichia coli (Sigma-Aldrich, St Louis, Mis-souri, USA), deoxycytoylate-phosphate-deoxyguanylate (CpG) DNA (sequence 1668, MWG; Eurofins MWG, Erdersberg, Germany) or lipomannan (LM) from Mycobacterium segma-tis (InvivoGen, San Diego, Calif., USA) intraperitoneally to boost disease (35-50 μg/mouse in 1 ml phosphate-buffered saline (PBS)).
Mice were blindly scored daily to every second day until the end of the experiment. […]

[6] = tested on: T cell proliferation; assay: ConA-stimulated proliferation of lymph node cells from DA rats immunized with rat collagen II, [3H]-thymidine; format: cell-based; conditions: ConA 1.5 μg/ml, 48 h
Description: draining lymph nodes collected day 9 p.i. from DA rats immunized with rat collagen II (RCII) in Freund's Incomplete Adjuvant (FIA) were used to prepare individual single cell suspensions. Lymph nodes were grinded through wire mesh and cells washed 3 times in incomplete DMEM cell culture medium. Cells were counted by trypan blue exclusion and cell suspensions of 2×10^6 cells/ml in complete DMEM prepared. 4×10^5 cells per well were seeded in flat-bottomed 96-well microtiter plates. Triplicates of each individual cell suspension were incubated with 1.5 μg/ml ConA. ConA was diluted in phosphate buffered saline, D-PBS. Spontaneous proliferation was determined by measuring proliferation in cell cultures without addition of ConA. As a positive proliferation control cells were stimulated with ConA together with 10 μl of the rabeximod vehicle, 0.01 M acetic acid. Doses of rabeximod were added in 10 μl vehicle so that the final concentrations in cell cultures ranged from 50-800 ng/ml. Cell cultures were incubated at 37° C.+5% CO2 for 48 h and 1 μCi of [^3H]-Thymidine per well was added to the cultures for the last 12 h. Cellular incorporation of [^3H]-thymidine was measured using a 1450 Microbeta Wallac Trilux Liquid Scintillation Luminescence Counter after harvesting the cells onto nitrocellulose filters.
Individual Inhibition Indices (1.1.) were calculated by dividing the average counts per minute (cpm) value of each triplicate stimulated with ConA and rabeximod with the average cpm value of the triplicate stimulated with ConA only. The inhibition of proliferation induced by rabeximod addition was expressed as % of the positive control (ConA only), i.e. by multiplying the inhibition indices with 100.

[7] = cited from earlier work
[8] = tested on: murine arthritis model; conditions: murine arthritis model in mice; cited from earlier work
[9] = tested on: collagen-induced arthritis model; conditions: dark agouti rats, daily subcutaneous administration from the day of immunization; cited from earlier work

With `Cc1cc2nc3c4cc(Cl)ccc4n(CC(=O)NCCN(C)C)c3nc2cc1C` [Rabeximod, 9-Chloro-2,3-dimethyl-6-(N,N-dimethylaminoethylamino-2-oxoethyl)-6H-indolo-[2,3-b]quinoxaline] the “change in IL-6 median value from baseline” value (shortened to “change in IL-6 median value”) ([1]; 6.25 mg daily, Week 12) was −185.0 IU/L, the “change in IL-6 median value” value ([1]; 6.25 mg daily, Week 16) was −804 IU/L and the “change in IL-6 median value” value ([1]; 15 mg daily, Week 12) was −1679.0 IU/L. For the same molecule, the “change in IL-6 median value” value ([1]; 15 mg daily, Week 16) was −1879 IU/L, the “change in IL-6 median value” value ([1]; 37.5 mg daily, Week 12) was 136.0 IU/L and the “change in IL-6 median value” value ([1]; 37.5 mg daily, Week 16) was −1124 IU/L. For the same molecule, the “LPS-stimulated production of IL-6” value ([2]; 1.25 μg/ml) was “significantly reduced”, the “LPS-stimulated production of MIP-1α” value ([2]; 1.25 μg/ml) was “significantly reduced” and the “LPS-stimulated production of MIP-1β” value ([2]; 1.25 μg/ml) was “significantly reduced”. The “LPS-stimulated production of TNFα” value ([2]; 1.25 μg/ml) was “significantly reduced”, the “LPS-stimulated production of RANTES” value ([2]; 12.5 μg/ml) was “all but RANTES were reduced” and the “LPS-stimulated production of pro-inflammatory cytokines and chemokines other than RANTES” value ([2]; 12.5 μg/ml) was “reduced”. The “TNF-α production from TLR2 stimulated macrophages” value [3] was “decreases”, the “inhibition of MLR activity” value ([4]; 10^−5 M, all responder:stimulator ratios) was “strong inhibitory effect” and the “inhibition of MLR activity” value ([4]; 10^−8 M) was “the inhibition decreased to a lesser extent”. The “inhibition of MLR activity” value ([4]; lower doses (10^−7, 10^−8 M)) was “less effective”, the “inhibition of MLR activity” value ([4]; two highest concentrations (10^−5, 10^−6 M), all tested ratios) was “highly inhibitory” and the arthritis severity ([5]; TLR4 deficient mice) was “reduces”. For the same molecule, the “activation of macrophages in animal models of arthritis” value ([5]; downstream mechanism, likely TLR2 signalling pathway) was “inhibits”, the arthritis severity ([5]; wild type mice) was “reduces” and the “inhibition of T cell proliferation” value ([6]; 300 ng/ml) was “Approximately 50%”. For the same molecule, the “inhibition of T cell proliferation” value ([6]; 500 ng/ml) was “approximately 80%”, the inhibition at 0.3 µg/mL ([6]; Rattus norvegicus, T-cell, 300 ng/ml) was at least 50% and the inhibition at 0.5 µg/mL ([6]; Rattus norvegicus, T-cell, 500 ng/ml) was at least 80%. The “fraction in plasma bound to protein” value [7] was “approximately 99%”, the arthritogenic scoring [8] was “statistically significant durable reductions” and the paw swelling [8] was “statistically significant durable reductions”. The paw thickness [8] was “statistically significant durable reductions”, the arthritis severity [9] was “suppressed” and the “onset of clinical arthritis” value [9] was “significantly delayed”.

From US20230226048A1, “NEW USE OF RABEXIMOD” (Cyxone AB, priority 2020, published 2023)
